Data: PubChem BioAssay (NCI)
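Test compounds were applied to cells in 96-well plates for 48 hours at 5 doses. GI50: concentration for 50% inhibition of growth. The concentration for full growth arrest is given as TGI.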

Experiments:
Test in all cases: NCI-60 cell line screen, 48 h
HOP-62 NSCLC = tested on: HOP-62 NSCLC
HS 578T breast = tested on: HS 578T breast
COLO 205 colon = tested on: COLO 205 colon
HCC-2998 colon = tested on: HCC-2998 colon
786-0 renal = tested on: 786-0 renal
MDA-MB-231 breast = tested on: MDA-MB-231 breast
UO-31 renal = tested on: UO-31 renal
SR leukemia = tested on: SR leukemia
K-562 leukemia = tested on: K-562 leukemia
T-47D breast = tested on: T-47D breast
MDA-MB-435 = tested on: MDA-MB-435
A498 renal = tested on: A498 renal

Row | Compound | TGI (HOP-62 NSCLC) [µM] | TGI (HS 578T breast) [µM] | TGI (COLO 205 colon) [µM] | TGI (HCC-2998 colon) [µM] | TGI (786-0 renal) [µM] | TGI (MDA-MB-231 breast) [µM] | TGI (UO-31 renal) [µM] | TGI (SR leukemia) [µM] | TGI (K-562 leukemia) [µM] | TGI (T-47D breast) [µM] | TGI (MDA-MB-435) [µM] | TGI (A498 renal) [µM] | GI50 (SR leukemia) [µM] | GI50 (MDA-MB-435) [µM] | GI50 (MDA-MB-231 breast) [µM] | GI50 (UO-31 renal) [µM] | GI50 (HOP-62 NSCLC) [µM] | GI50 (COLO 205 colon) [µM] | GI50 (HCC-2998 colon) [µM]
1 | CCOC(=O)c1cn2c(n1)sc1cccc(C)c12 | > 100 | > 100 | > 100 | > 100 | > 100 | > 100 | > 100 |  |  |  |  |  |  |  |  |  |  |  | 
2 | O=C1CSC(c2ccc(Cl)cc2)N1c1ccc(Oc2ccc(Cl)cc2)c(Cl)c1 (stereo not given) | 41.9 | 27.5 | 34.3 | 33.4 | 30.5 | 30.7 | 21 | 41 | > 100 | 24.9 | 39 |  |  |  |  |  |  |  | 
3 | COC(CCC[N+](C)(C)C)CC[N+](C)(C)C (stereo not given) | > 100 |  | > 100 | > 100 | > 100 |  | > 100 | > 100 | > 100 |  |  |  |  |  |  |  |  |  | 
4 | Cc1ccc(C(=O)O)cc1S(=O)(=O)Nn1cnc2ccc(S(=O)(=O)Nc3ccccc3C(=O)O)cc2c1=O | > 100 | > 100 | > 100 | > 100 | > 100 | > 100 | > 100 | > 100 | > 100 |  | > 100 |  |  |  |  |  |  |  | 
5 | CCC(C(=O)O)c1ccc(OC)cc1 (stereo not given) | > 100 |  | > 100 | > 100 |  |  | > 100 | > 100 | > 100 |  |  | > 100 |  |  |  |  |  |  | 
6 | Nc1nc(Cl)cc(NCC2(CO)CC(=O)C2)n1 | > 100 | > 100 | > 100 | > 100 | > 100 | > 100 | > 100 | > 100 | > 100 | > 100 | > 100 |  |  |  |  |  |  |  | 
7 | CO/C(=N\N=C\c1ccc(C(F)(F)F)cc1)c1ccncc1 | > 10 |  | > 10 | > 10 | > 10 | > 10 | > 10 | > 10 | > 10 | > 10 | > 10 |  |  |  |  |  |  |  | 
8 | Cc1c(O)c(O)cc[n+]1C1OC(CO)C(O)C1O (stereo not given) |  |  | > 100 | > 100 | > 100 |  | > 100 |  | > 100 |  |  | > 100 |  |  |  |  |  |  | 
9 | C=C1C(=O)O[C@@H]2C(=O)[C@@H](C)CCC/C(C)=C/CC[C@@]3(C)O[C@@H]3C[C@@H]12 | > 100 |  | 47.9 | > 100 | 43.9 | > 100 | > 100 |  | 34.8 | > 100 | > 100 | > 100 |  |  |  |  |  |  | 
10 | CC1CCC(n2c3cnccc3c3cnc(Nc4ccc5c(n4)CCN(C(=O)CO)C5)nc32)CC1 (stereo not given) |  |  |  |  |  | > 100 | > 100 | > 100 |  |  | > 100 |  | 0.239 | 0.66 | 1.38 | 0.263 |  |  | 
11 | C[C@]12CCC(O)CC1=CC[C@@H]1[C@@H]2CC[C@]2(C)C(=O)[C@H](n3ccnc3)C[C@@H]12 (stereo not given in full) |  | > 100 | 71 |  | > 100 | > 100 | > 100 | > 100 | > 100 |  | > 100 | > 100 |  |  |  |  |  |  | 
12 | O=C(NC(=O)c1ccccc1[N+](=O)[O-])Nc1ccc(Oc2ncc(Br)cn2)c(Cl)c1 |  | 0.0934 | 2.22 | 32.9 |  |  |  |  |  |  | 0.0312 | 0.052 |  |  |  |  | 0.0454 | < 0.0188 | 0.0497
13 | COc1ccc(-c2cc(O)c3nc4ccccc4n3c2)cc1 | > 100 | > 100 | > 100 |  | > 100 | > 100 | > 100 | > 100 | > 100 |  | > 100 | > 100 |  |  |  |  |  |  | 
14 | O=C1CC(NC(=O)C(F)(F)F)c2c(Br)sc(N3CCNCC3)c21 (stereo not given) |  | > 100 | > 100 | > 100 | > 100 | > 100 | > 100 |  | > 100 | > 100 | > 100 | > 100 |  |  |  |  |  |  | 
15 | COc1cc2nc3n(c(=O)c2cc1OC)-c1ccc([N+](=O)[O-])cc1C3=O | > 100 | > 100 | > 100 | > 100 | > 100 | > 100 | 35 |  | > 100 | > 100 | 40.1 | 78.6 |  |  |  |  |  |  | 
16 | CC(=O)OC1CC(OC2C(O)CC(OC3C(O)CC(OC4CCC5(C)C(CCC6C5CC(O)C5(C)C(C7=CC(=O)OC7)CCC65O)C4)OC3C)OC2C)OC(C)C1OC1OC(CO)C(O)C(O)C1O (stereo not given) | 0.0956 | 0.525 | 0.394 | 0.441 | 0.107 | 2.41 | 0.179 |  | > 100 | 0.633 | 0.61 | 0.413 |  |  |  |  |  |  | 
17 | ClCCN1CCC2(CC1)SSC1(CCN(CCCl)CC1)S2 | > 100 | > 100 | 41.2 |  | > 100 | > 100 | > 100 | > 100 | > 100 |  | > 100 | > 100 |  |  |  |  |  |  | 
18 | C1CN(c2nc3c(nnc4nc(N5CCOCC5)sc43)s2)CCO1 | > 100 | > 100 | > 100 |  | > 100 | > 100 | > 100 |  | > 100 | > 100 | > 100 | > 100 |  |  |  |  |  |  | 
19 | C1=C2/CC[C@H](Sc3ccccc3)C2C2(CCCCC/1)OCCO2 (stereo not given in full) | 58.2 |  | 37.8 | 67.9 | > 100 |  |  | > 100 | > 100 |  |  |  |  |  |  |  |  |  | 
20 | CCCCC#C[I+]c1ccccc1 | 37.6 |  | 28.7 | 34.4 | 28.8 |  | 30 | 37.5 | 40.3 |  |  | 48.2 |  |  |  |  |  |  | 
21 | O=c1c2cc([N+](=O)[O-])cnc2sn1-c1ccc([N+](=O)[O-])cc1 | > 100 | 90 | 37.3 | > 100 | > 100 | 53.6 | > 100 | 54.6 |  | 83.6 | > 100 |  |  |  |  |  |  |  | 
22 | Cc1ccc(-c2n[nH]c(=O)n2N2C(=O)c3ccccc3C2=O)cc1 | > 100 | > 100 |  | > 100 | > 100 | > 100 | > 100 | > 100 | > 100 | > 100 | > 100 |  |  |  |  |  |  |  | 
